Experimental data taken from patent US8759339B2, “Pyrrolo[2,1-c][1,4]naphthodiazepine linked piperazine compounds and a process for the preparation thereof” (Council of Scientific & Industrial Research, priority 2011, dated 2014).
Where two headings read alike, the source gives them in different places.

Legend:
[1] = system: L-6 skeletal cancer cell line; assay: In vitro anticancer activity, MTT assay; type: cell-based; conditions: result in words
Protocol: (§1) In vitro biological activity studies were carried out at the pharmacology division, IICT, Hyderabad. The compounds were evaluated for in vitro anticancer activity against eight tumour cell lines derived from […] cancer types (breast, lung, liver, skeletal, kidney, prostrate, small intestine) as shown in Table 2. For each compound, dose response curves for each cell line were measured at a minimum of five concentrations at 10 fold dilutions. A protocol of 48 h continuous drug exposure was used and a MTT assay was used to estimate cell viability or growth. The concentration causing 50% inhibition (IC50) compared with the control was calculated. Some of the compounds have been evaluated for their in vitro cytotoxicity in eight cell lines from seven human cancer types. The results are expressed as IC50 determined relative to that of untreated control cells (Table-2).

L-6 = assay: In vitro anticancer activity, MTT assay; type: cell-based; conditions: skeletal cancer cell line; MTT, 48 h continuous drug exposure
Protocol: as §1

[2] = system: COS-1 kidney cancer cell line; assay: In vitro anticancer activity, MTT assay; type: cell-based; conditions: for in-vitro cytotoxicity in kidney cancer cell line (COS-1): result in words
Protocol: as §1

[3] = In vitro anticancer activity, MTT assay; type: cell-based; conditions: kidney cancer cell line, MTT, 48 h continuous drug exposure
Protocol: as §1

[4] = system: IEC-6 small intestine cell line; assay: In vitro anticancer activity, MTT assay; type: cell-based; conditions: for in-vitro cytotoxicity in small intestine cancer cell line (IEC-6): result in words
Protocol: as §1

[5] = system: MCF7 breast cancer cell line; assay: In vitro anticancer activity, MTT assay; type: cell-based, human; conditions: for IC50: breast cancer cell line, MTT, 48 h continuous drug exposure; for in-vitro cytotoxicity in breast cancer cell line (MCF-7): result in words
Protocol: as §1

[6] = system: HEPG2 liver cancer cell line; assay: In vitro anticancer activity, MTT assay; type: cell-based, human; conditions: for in-vitro cytotoxicity in liver cancer cell line (HEPG2): result in words
Protocol: as §1

[7] = system: NCIH460 large cell lung cancer cell line; assay: In vitro anticancer activity, MTT assay; type: cell-based, human; conditions: for IC50: large cell lung cancer cell line, MTT, 48 h continuous drug exposure; for in-vitro cytotoxicity in large cell lung cancer cell line (NCIH460): result in words
Protocol: as §1

[8] = system: PC-3 prostrate cancer cell line; assay: In vitro anticancer activity, MTT assay; type: cell-based, human; conditions: for IC50: prostrate cancer cell line, MTT, 48 h continuous drug exposure; for in-vitro cytotoxicity in prostrate cancer cell line (PC-3): result in words
Protocol: as §1

[9] = system: A549 lung cancer cell line; assay: In vitro anticancer activity, MTT assay; type: cell-based, human; conditions: for in-vitro cytotoxicity in lung cancer cell line (A549): result in words
Protocol: as §1

calf thymus DNA (CT-DNA) = assay: Thermal denaturation studies with duplex-form calf thymus DNA; type: binding; conditions: [PND]/[DNA] molar ratio 1:5, CT-DNA 100 μM, ligand 20 μM, aqueous sodium phosphate buffer pH 7; for ΔTm after incubation at 37° C. for 0 hr: 0 hr at 37° C.; for ΔTm after incubation at 37° C. for 18 hrs: 18 hrs at 37° C.
Protocol: Compounds have been subjected to thermal denaturation studies with duplex-form calf thymus DNA (CT-DNA) using an modification of a reported procedure (Newman, M. S. Carcinog-compr. Surv. 1976, 1, 203; (b) Hecht, S. S.; Loy, M.; Hoffman, Carcinog-compr. Surv. 1976, 1, 325). Working solutions in aqueous buffer (10 mM NaH2PO4/Na2HPO4, 1 mM Na2EDTA, pH 7.00+0.01) containing CT-DNA (100 μm in phosphate) and the PND (pyrrolo naphtha diazepine) (20 μm) have been prepared by addition of concentrated PND (pyrrolo naphtha diazepine) solutions in DMSO to obtain a fixed [PND]/[DNA] molar ratio of 1:5. The DNA-PND (pyrrolo naphtha diazepine) solutions have been incubated at 37° C. for 0 and 18 h prior to analysis. Samples have been monitored at 260 nm using a Beckman DU-800 spectrophotometer fitted with high performance temperature controller, and heated at 1° C. min in the 40-110° C. range. DNA helix→coil transition temperatures (Tm) have been obtained from the maxima in the d(A260)/dT derivative plots. Drug-induced alterations in DNA melting behavior are given by: ΔTm=Tm(DNA+PND)−Tm(DNA alone), where the Tm value for the PND-free CT-DNA is 69.1±0.01.
The DNA binding activity for these novel substituted piperazine linked pyrrolo naphtho diazepine hybrids has been examined by thermal denaturation studies using calf thymus (CT) DNA. […] The data for some of the compounds are included in Table 1 for comparison.

[10] = small intestine cell line, MTT, 48 h continuous drug exposure, read-out: IC50 IEC-6
[11] = liver cancer cell line, MTT, 48 h continuous drug exposure, read-out: IC50 HEPG2
[12] = lung cancer cell line, MTT, 48 h continuous drug exposure, read-out: IC50 A549

| SMILES | IC50 ([3]; read-out: IC50 COS-1) [nM] | IC50 [4, 10] [nM] | IC50 [5] [nM] | IC50 [6, 11] [nM] | IC50 [7] [nM] | IC50 [8] [nM] | IC50 [9, 12] [nM] | in-vitro cytotoxicity in skeletal cancer cell line (L-6) [1] | IC50 (L-6) [nM] | in-vitro cytotoxicity in kidney cancer cell line (COS-1) [2] | in-vitro cytotoxicity in small intestine cancer cell line (IEC-6) [4] | in-vitro cytotoxicity in breast cancer cell line (MCF-7) [5] | in-vitro cytotoxicity in liver cancer cell line (HEPG2) [6] | in-vitro cytotoxicity in large cell lung cancer cell line (NCIH460) [7] | in-vitro cytotoxicity in prostrate cancer cell line (PC-3) [8] | in-vitro cytotoxicity in lung cancer cell line (A549) [9] | ΔTm after incubation at 37° C. for 0 hr (calf thymus DNA (CT-DNA)) [°C] | ΔTm after incubation at 37° C. for 18 hrs (calf thymus DNA (CT-DNA)) [°C] | also measured |
| --- | --- | --- | --- | --- | --- | --- | --- | --- | --- | --- | --- | --- | --- | --- | --- | --- | --- | --- | --- |
| COc1cc2cc3c(cc2cc1OCCN1CCN(Cc2ccc4c(c2)OCO4)CC1)N=C[C@@H]1CCCN1C3=O [7a, 8-Methoxy-9-(2-[4-(1,3-benzodioxol-5-ylmethyl)piperazino]ethoxyl)(13aS)-1,2,3,13a-tetrahydro-5H-pyrrolo[2,1-c][1,4]naphthodiazepin-5-one] | 2580 | 50 | 200 | 110 | 80 | 640 | 2210 | exhibiting in-vitro cytotoxicity | 770 | exhibiting in-vitro cytotoxicity | exhibiting in-vitro cytotoxicity | exhibiting in-vitro cytotoxicity | exhibiting in-vitro cytotoxicity | exhibiting in-vitro cytotoxicity | exhibiting in-vitro cytotoxicity | exhibiting in-vitro cytotoxicity | 4.9 | 6.5 |  |
| CCN1CCN(CCOc2cc3cc4c(cc3cc2OC)N=C[C@@H]2CCCN2C4=O)CC1 [15a, 9-Methoxy-8-[2-(4-ethylpiperazino)ethoxy]-(13aS)-1,2,3,13a-tetrahydro-5H-pyrrolo[2,1-c][1,4]naphthodiazepin-5-one] |  |  |  |  |  |  |  | exhibiting in-vitro cytotoxicity | 1870 | exhibiting in-vitro cytotoxicity | exhibiting in-vitro cytotoxicity | exhibiting in-vitro cytotoxicity | exhibiting in-vitro cytotoxicity | exhibiting in-vitro cytotoxicity | exhibiting in-vitro cytotoxicity | exhibiting in-vitro cytotoxicity | 6.1 | 7.2 | IC50 ([2]; COS-1, range over the listed compounds, exposure period of at least 48 hrs, read-out: IC50 against kidney cancer cell lines): 800 to 4320 nM; IC50 ([3]; COS-1): 3660 nM; IC50 ([4]; IEC-6, range over the listed compounds, exposure period of at least 48 hrs, read-out: IC50 against small intestine cancer cell lines): 10 to 5840 nM; IC50 ([4]; IEC-6, small intestine cell line, MTT, 48 h continuous drug exposure, read-out: IC50 IEC-6): 130 nM; IC50 ([5]; Homo sapiens, MCF7): 40 nM; IC50 ([6]; Homo sapiens, HepG2, liver cancer cell line, MTT, 48 h continuous drug exposure, read-out: IC50 HEPG2): 200 nM; IC50 ([6]; Homo sapiens, HepG2, range over the listed compounds, exposure period of at least 48 hrs, read-out: IC50 against liver cancer cell lines): 20 to 7320 nM; IC50 ([7]; Homo sapiens, NCI-H460): 1250 nM; IC50 ([8]; Homo sapiens): 410 nM; IC50 ([9]; Homo sapiens, A549, lung cancer cell line, MTT, 48 h continuous drug exposure, read-out: IC50 A549): 540 nM; IC50 ([9]; Homo sapiens, A549, range over the listed compounds, exposure period of at least 48 hrs, read-out: IC50 against lung cancer cell lines): 20 to 11900 nM |

Further lines, with some results ahead:

| IC50 ([3]; read-out: IC50 COS-1) [nM] | IC50 [4, 10] [nM] | IC50 [5] [nM] | IC50 [6, 11] [nM] | IC50 [7] [nM] | IC50 [8] [nM] | IC50 [9, 12] [nM] | SMILES | in-vitro cytotoxicity in skeletal cancer cell line (L-6) [1] | IC50 (L-6) [nM] | in-vitro cytotoxicity in kidney cancer cell line (COS-1) [2] | in-vitro cytotoxicity in small intestine cancer cell line (IEC-6) [4] | in-vitro cytotoxicity in breast cancer cell line (MCF-7) [5] | in-vitro cytotoxicity in liver cancer cell line (HEPG2) [6] | in-vitro cytotoxicity in large cell lung cancer cell line (NCIH460) [7] | in-vitro cytotoxicity in prostrate cancer cell line (PC-3) [8] | in-vitro cytotoxicity in lung cancer cell line (A549) [9] | ΔTm after incubation at 37° C. for 0 hr (calf thymus DNA (CT-DNA)) [°C] | ΔTm after incubation at 37° C. for 18 hrs (calf thymus DNA (CT-DNA)) [°C] | also measured |
| --- | --- | --- | --- | --- | --- | --- | --- | --- | --- | --- | --- | --- | --- | --- | --- | --- | --- | --- | --- |
| 6390 | 140 | 1500 | 470 | 430 | 1600 | 7420 | COc1cc2cc3c(cc2cc1OCCN1CCN(c2ccccc2)CC1)N=C[C@@H]1CCCN1C3=O [8a, 8-Methoxy-9-[2-(4-phenylpiperazino)ethoxy]-(13aS)-1,2,3,13a-tetrahydro-5H-pyrrolo[2,1-c][1,4]naphthodiazepin-5-one] | exhibiting in-vitro cytotoxicity | 1010 | exhibiting in-vitro cytotoxicity | exhibiting in-vitro cytotoxicity | exhibiting in-vitro cytotoxicity | exhibiting in-vitro cytotoxicity | exhibiting in-vitro cytotoxicity | exhibiting in-vitro cytotoxicity | exhibiting in-vitro cytotoxicity | 5.1 | 6.9 |  |
| 4320 | 160 | 10 | 220 | 240 | 100 | 320 | COc1cc2cc3c(cc2cc1OCCN1CCN(c2ccccn2)CC1)N=C[C@@H]1CCCN1C3=O [12a, 8-Methoxy-9-(2-[4-(2-pyridyl)piperazino]ethoxy)-(13aS)-1,2,3,13a-tetrahydro-5H-pyrrolo[2,1-c][1,4]naphthodiazepin-5-one] | exhibiting in-vitro cytotoxicity | 860 | exhibiting in-vitro cytotoxicity | exhibiting in-vitro cytotoxicity | exhibiting in-vitro cytotoxicity | exhibiting in-vitro cytotoxicity | exhibiting in-vitro cytotoxicity | exhibiting in-vitro cytotoxicity | exhibiting in-vitro cytotoxicity | 5.8 | 7.1 |  |
| 1870 | 20 | 40 | 40 | 260 | 80 | 860 | COc1cc2cc3c(cc2cc1OCCN1CCN(c2ncccn2)CC1)N=C[C@@H]1CCCN1C3=O [13a, 8-Methoxy-9-(2-[4-(2-pyrimidinyl)piperazino]ethoxy)-(13aS)-1,2,3,13a-tetrahydro-5H-pyrrolo[2,1-c][1,4]naphthodiazepin-5-one] | exhibiting in-vitro cytotoxicity | 610 | exhibiting in-vitro cytotoxicity | exhibiting in-vitro cytotoxicity | exhibiting in-vitro cytotoxicity | exhibiting in-vitro cytotoxicity | exhibiting in-vitro cytotoxicity | exhibiting in-vitro cytotoxicity | exhibiting in-vitro cytotoxicity | 5.0 | 6.5 |  |
